# Results as given in patent publication US20230331731A1, “CRYSTAL FORM OF PYRROLO HETEROCYCLIC DERIVATIVE AND PREPARATION METHOD THEREFOR” (Jiangsu Hengrui Pharmaceuticals Co., Ltd., priority 2020, published 2023).
# Columns and labels:
# [1] = Influencing factor stability study; format: physicochemical; conditions: for physical and chemical stability (conclusion): high-temperature conditions (40° C. and 60° C.) and high-humidity conditions (75% and 92.5%)
# [2] = Long-term/accelerated stability study; format: physicochemical; conditions: for Crystal form / Purity, 1 month / physical and chemical stability (conclusion): 1 month; for physical and chemical stability (conclusion): long-term and accelerated stability conditions
# Protocol: 1. The hydrobromide in crystal form α was left to stand under 25° C., 60% RH conditions and 40° C., 75% RH conditions to investigate its stability.
# 4. The fumarate in crystal form II was subjected to 6-month long-term (25° C., 60% RH) and accelerated (40° C., 75% RH) stability studies.
smiles,measurement,setting,value
Br.Br.Cn1nccc1Nc1nccc(-c2cc3n(c2)C(=O)N([C@H](CO)c2cccc(Cl)c2)C3)n1 [Hydrobromide in crystal form β],Color and appearance,"[1]; 40° C., open, 7 days",Off-white solid
same,Crystal form,"[1]; 40° C., open, 7 days",Did not change
same,Main peak purity,"[1]; 40° C., open, 7 days",99.13%
same,Color and appearance,"[1]; 40° C., open, 14 days",Off-white solid
same,Crystal form,"[1]; 40° C., open, 14 days",Did not change
same,Main peak purity,"[1]; 40° C., open, 14 days",99.07%
same,Color and appearance,"[1]; 40° C., open, 30 days",Off-white solid
same,Crystal form,"[1]; 40° C., open, 30 days",Did not change
same,Main peak purity,"[1]; 40° C., open, 30 days",98.96%
same,Color and appearance,"[1]; 60° C., open, 7 days",Off-white solid
same,Crystal form,"[1]; 60° C., open, 7 days",Did not change
same,Main peak purity,"[1]; 60° C., open, 7 days",98.82%
same,Color and appearance,"[1]; 60° C., open, 14 days",Off-white solid
same,Crystal form,"[1]; 60° C., open, 14 days",Did not change
same,Main peak purity,"[1]; 60° C., open, 14 days",98.82%
same,Color and appearance,"[1]; 60° C., open, 30 days",Off-white solid
same,Crystal form,"[1]; 60° C., open, 30 days",Did not change
same,Main peak purity,"[1]; 60° C., open, 30 days",98.88%
same,Color and appearance,"[1]; 75% RH, open, 7 days",Off-white solid
same,Crystal form,"[1]; 75% RH, open, 7 days",Did not change
same,Main peak purity,"[1]; 75% RH, open, 7 days",99.13%
same,Color and appearance,"[1]; 75% RH, open, 14 days",Off-white solid
same,Crystal form,"[1]; 75% RH, open, 14 days",Did not change
same,Main peak purity,"[1]; 75% RH, open, 14 days",99.11%
same,Color and appearance,"[1]; 75% RH, open, 30 days",Off-white solid
same,Crystal form,"[1]; 75% RH, open, 30 days",Did not change
same,Main peak purity,"[1]; 75% RH, open, 30 days",99.11%
same,Color and appearance,"[1]; 92.5% RH, open, 7 days",Off-white solid
same,Crystal form,"[1]; 92.5% RH, open, 7 days",Did not change
same,Main peak purity,"[1]; 92.5% RH, open, 7 days",99.09%
same,Color and appearance,"[1]; 92.5% RH, open, 14 days",Off-white solid
same,Crystal form,"[1]; 92.5% RH, open, 14 days",Did not change
same,Main peak purity,"[1]; 92.5% RH, open, 14 days",99.15%
same,Color and appearance,"[1]; 92.5% RH, open, 30 days",Off-white solid
same,Crystal form,"[1]; 92.5% RH, open, 30 days",Did not change
same,Main peak purity,"[1]; 92.5% RH, open, 30 days",98.93%
same,Color and appearance,"[1]; 4500 Lux, open, 7 days",Off-white solid
same,Crystal form,"[1]; 4500 Lux, open, 7 days",Did not change
same,Main peak purity,"[1]; 4500 Lux, open, 7 days",98.99%
same,Color and appearance,"[1]; 4500 Lux, open, 14 days",Off-white solid
same,Crystal form,"[1]; 4500 Lux, open, 14 days",Did not change
same,Main peak purity,"[1]; 4500 Lux, open, 14 days",98.54%
same,Color and appearance,"[1]; 4500 Lux, open, 30 days",Off-white solid
same,Crystal form,"[1]; 4500 Lux, open, 30 days",Did not change
same,Main peak purity,"[1]; 4500 Lux, open, 30 days",98.28%
same,Color and appearance,"[1]; Initial, 0 days",Off-white solid
same,Crystal form,"[1]; Initial, 0 days",Crystal form β
same,Main peak purity,"[1]; Initial, 0 days",99.12%
same,physical and chemical stability (conclusion),[1]; 30 days,relatively good physical and chemical stability
same,Crystal form,"[2]; 25° C., 60%RH",β
same,"Purity, 1 month","[2]; 25° C., 60%RH",98.99%
same,Crystal form,"[2]; 40° C., 75%RH",β
same,"Purity, 1 month","[2]; 40° C., 75%RH",99.00%
same,"Purity, Initial",[2],99.17%
same,physical and chemical stability (conclusion),[2],good physical and chemical stability
Cn1nccc1Nc1nccc(-c2cc3n(c2)C(=O)N([C@H](CO)c2cccc(Cl)c2)C3)n1.Cn1nccc1Nc1nccc(-c2cc3n(c2)C(=O)N([C@H](CO)c2cccc(Cl)c2)C3)n1.O=C(O)/C=C/C(=O)O [Fumarate in crystal form IV],Color and appearance,"[1]; 40° C., open, 7 days",Pale yellow solid
same,Crystal form,"[1]; 40° C., open, 7 days",Did not change
same,Main peak purity,"[1]; 40° C., open, 7 days",99.46%
same,Color and appearance,"[1]; 40° C., open, 14 days",Pale yellow solid
same,Crystal form,"[1]; 40° C., open, 14 days",Did not change
same,Main peak purity,"[1]; 40° C., open, 14 days",99.47%
same,Color and appearance,"[1]; 40° C., open, 30 days",Pale yellow solid
same,Crystal form,"[1]; 40° C., open, 30 days",Did not change
same,Main peak purity,"[1]; 40° C., open, 30 days",99.26%
same,Color and appearance,"[1]; 60° C., open, 7 days",Pale yellow solid
same,Crystal form,"[1]; 60° C., open, 7 days",Did not change
same,Main peak purity,"[1]; 60° C., open, 7 days",99.45%
same,Color and appearance,"[1]; 60° C., open, 14 days",Pale yellow solid
same,Crystal form,"[1]; 60° C., open, 14 days",Did not change
same,Main peak purity,"[1]; 60° C., open, 14 days",99.46%
same,Color and appearance,"[1]; 60° C., open, 30 days",Pale yellow solid
same,Crystal form,"[1]; 60° C., open, 30 days",Did not change
same,Main peak purity,"[1]; 60° C., open, 30 days",99.23%
same,Color and appearance,"[1]; 75% RH, open, 7 days",Pale yellow solid
same,Crystal form,"[1]; 75% RH, open, 7 days",Did not change
same,Main peak purity,"[1]; 75% RH, open, 7 days",99.52%
same,Color and appearance,"[1]; 75% RH, open, 14 days",Pale yellow solid
same,Crystal form,"[1]; 75% RH, open, 14 days",Did not change
same,Main peak purity,"[1]; 75% RH, open, 14 days",99.43%
same,Color and appearance,"[1]; 75% RH, open, 30 days",Pale yellow solid
same,Crystal form,"[1]; 75% RH, open, 30 days",Did not change
same,Main peak purity,"[1]; 75% RH, open, 30 days",99.36%
same,Color and appearance,"[1]; 92.5% RH, open, 7 days",Pale yellow solid
same,Crystal form,"[1]; 92.5% RH, open, 7 days",Did not change
same,Main peak purity,"[1]; 92.5% RH, open, 7 days",99.47%
same,Color and appearance,"[1]; 92.5% RH, open, 14 days",Pale yellow solid
same,Crystal form,"[1]; 92.5% RH, open, 14 days",Did not change
same,Main peak purity,"[1]; 92.5% RH, open, 14 days",99.45%
same,Color and appearance,"[1]; 92.5% RH, open, 30 days",Pale yellow solid
same,Crystal form,"[1]; 92.5% RH, open, 30 days",Did not change
same,Main peak purity,"[1]; 92.5% RH, open, 30 days",99.40%
same,Color and appearance,"[1]; 4500 Lux, open, 7 days",Pale yellow solid
same,Crystal form,"[1]; 4500 Lux, open, 7 days",Did not change
same,Main peak purity,"[1]; 4500 Lux, open, 7 days",99.43%
same,Color and appearance,"[1]; 4500 Lux, open, 14 days",Pale yellow solid
same,Crystal form,"[1]; 4500 Lux, open, 14 days",Did not change
same,Main peak purity,"[1]; 4500 Lux, open, 14 days",99.29%
same,Color and appearance,"[1]; 4500 Lux, open, 30 days",Pale yellow solid
same,Crystal form,"[1]; 4500 Lux, open, 30 days",Did not change
same,Main peak purity,"[1]; 4500 Lux, open, 30 days",99.19%
same,Color and appearance,"[1]; Initial, 0 days",Pale yellow solid
same,Crystal form,"[1]; Initial, 0 days",Crystal form IV
same,Main peak purity,"[1]; Initial, 0 days",99.47%
same,physical and chemical stability (conclusion),[1]; 30 days,relatively good physical and chemical stability
same,"Purity, 1 month","[2]; 25° C., 60%RH",99.40%
same,"Purity, 1 month","[2]; 40° C., 75%RH",99.34%
same,"Purity, Initial",[2],99.46%
same,physical and chemical stability (conclusion),[2],good physical and chemical stability
Br.Cn1nccc1Nc1nccc(-c2cc3n(c2)C(=O)N([C@H](CO)c2cccc(Cl)c2)C3)n1 [Hydrobromide in crystal form α],Color and appearance,"[1]; 40° C., open, 7 days",Off-white solid
same,Crystal form,"[1]; 40° C., open, 7 days",Did not change
same,Main peak purity,"[1]; 40° C., open, 7 days",99.42%
same,Color and appearance,"[1]; 40° C., open, 14 days",Off-white solid
same,Crystal form,"[1]; 40° C., open, 14 days",Did not change
same,Main peak purity,"[1]; 40° C., open, 14 days",99.32%
same,Color and appearance,"[1]; 40° C., open, 30 days",Off-white solid
same,Crystal form,"[1]; 40° C., open, 30 days",Did not change
same,Main peak purity,"[1]; 40° C., open, 30 days",99.28%
same,Color and appearance,"[1]; 60° C., open, 7 days",Off-white solid
same,Crystal form,"[1]; 60° C., open, 7 days",Did not change
same,Main peak purity,"[1]; 60° C., open, 7 days",99.38%
same,Color and appearance,"[1]; 60° C., open, 14 days",Off-white solid
same,Crystal form,"[1]; 60° C., open, 14 days",Did not change
same,Main peak purity,"[1]; 60° C., open, 14 days",98.99%
same,Color and appearance,"[1]; 60° C., open, 30 days",Off-white solid
same,Crystal form,"[1]; 60° C., open, 30 days",Did not change
same,Main peak purity,"[1]; 60° C., open, 30 days",99.02%
same,Color and appearance,"[1]; 75% RH, open, 7 days",Off-white solid
same,Crystal form,"[1]; 75% RH, open, 7 days",Did not change
same,Main peak purity,"[1]; 75% RH, open, 7 days",99.41%
same,Color and appearance,"[1]; 75% RH, open, 14 days",Off-white solid
same,Crystal form,"[1]; 75% RH, open, 14 days",Did not change
same,Main peak purity,"[1]; 75% RH, open, 14 days",99.30%
same,Color and appearance,"[1]; 75% RH, open, 30 days",Off-white solid
same,Crystal form,"[1]; 75% RH, open, 30 days",Did not change
same,Main peak purity,"[1]; 75% RH, open, 30 days",99.31%
same,Color and appearance,"[1]; 92.5% RH, open, 7 days",Off-white solid
same,Crystal form,"[1]; 92.5% RH, open, 7 days",Did not change
same,Main peak purity,"[1]; 92.5% RH, open, 7 days",99.39%
same,Color and appearance,"[1]; 92.5% RH, open, 14 days",Off-white solid
same,Crystal form,"[1]; 92.5% RH, open, 14 days",Did not change
same,Main peak purity,"[1]; 92.5% RH, open, 14 days",99.42%
same,Color and appearance,"[1]; 92.5% RH, open, 30 days",Off-white solid
same,Crystal form,"[1]; 92.5% RH, open, 30 days",Did not change
same,Main peak purity,"[1]; 92.5% RH, open, 30 days",99.28%
same,Color and appearance,"[1]; 4500 Lux, open, 7 days",Off-white solid
same,Crystal form,"[1]; 4500 Lux, open, 7 days",Did not change
same,Main peak purity,"[1]; 4500 Lux, open, 7 days",99.09%
same,Color and appearance,"[1]; 4500 Lux, open, 14 days",Off-white solid
same,Crystal form,"[1]; 4500 Lux, open, 14 days",Did not change
same,Main peak purity,"[1]; 4500 Lux, open, 14 days",98.94%
same,Color and appearance,"[1]; 4500 Lux, open, 30 days",Off-white solid
same,Crystal form,"[1]; 4500 Lux, open, 30 days",Did not change
same,Main peak purity,"[1]; 4500 Lux, open, 30 days",98.50%
same,physical and chemical stability (conclusion),[1]; 30 days,relatively good physical and chemical stability
same,Crystal form,"[2]; 25° C., 60%RH",α
same,"Purity, 1 month","[2]; 25° C., 60%RH",99.33%
same,Crystal form,"[2]; 40° C., 75%RH",α
same,"Purity, 1 month","[2]; 40° C., 75%RH",99.24%
same,"Purity, Initial",[2],99.43%
same,physical and chemical stability (conclusion),[2],good physical and chemical stability
